# Experimental data taken from US20140134169A1, “Methods of Treating Ovarian Cancer with Dll4 Antagonists” (Regeneron Pharmaceuticals, Inc., priority 2012, published 2014).
# What was measured:
# [1] = test system: A2780 cells; assay: A2780 ovarian xenograft (intraperitoneal) tumor growth inhibition; format: in vivo, human; conditions: SCID mice (native murine Dll4); REGN421 2.5 mg/kg 1x/week, mDll4Ab1 5 mg/kg 1x/week, VEGF-Trap 10 mg/kg 2x/week
# Description: Ovarian tumor xenograft cells were implanted into humanized Dll4 SCID mice or vendor SCID mice (i.e., SCID mice expressing native murine Dll4). After implantation, mice were treated with REGN421 (anti-human Dll4 antibody, binds to human Dll4), mDll4Ab1 (anti-murine Dll4 antibody, binds to murine Dll4), or a human Fc domain control protein. In one study, mice were treated with VEGF-Trap, mDll4Ab1 or VEGF-Trap plus mDll4Ab1. TOV-112D cells (5×10^6) were implanted subcutaneously into the right flank of humanized Dll4 (n=4) or vendor SCID mice (n=7). Treatment with REGN421 (2.5 mg/kg, 1×/week) or mDll4Ab1 (5 mg/kg, 1×/week) vs. hFc control was initiated one week after tumor cell implantation. Animals were treated for 2 to 3 weeks. A2780 cells (2×10^6) were implanted intraperitoneally into humanized Dll4 or vendor SCID mice (n=4-5). Treatment with REGN421 (2.5 mg/kg, 1×/week) or mDll4Ab1 (5 mg/kg, 1×/week) vs. hFc control was initiated one week after tumor cell implantation. For the A2780 combination study, simultaneous treatment with mDll4Ab1 (5 mg/kg, 1×/week) and VEGF-Trap (10 mg/kg, 2×/week) was initiated one week after tumor cell implantation. A VEGF-Trap single treatment arm was included in this study. Animals bearing A2780 tumors were treated for 4-5 weeks. SKOV-3 cells (5×10^6) in matrigel were implanted subcutaneously and tumor-bearing animals (n=10) were dosed with REGN421 (2.5 mg/kg) and mDll4Ab1 (5 mg/kg) once weekly. OVCAR-3 cells (1×10^7) were implanted subcutaneously into the right flank of vendor SCID mice (n=7). Treatment with mDll4Ab1 (5 mg/kg 1×/week) vs. hFc control was initiated 66 days after tumor cell implantation. Animals were treated for a total of 5 weeks. Tumor growth inhibition (TGI) was measured as detailed above.
# [2] = test system: human VM-Cub1 tumor cells (bladder carcinoma cells); assay: Growth of human VM-Cub1 tumors implanted in humanized Dll4 SCID mice; format: in vivo; conditions: for TGI(%): day 32; for TGD: to 600 mm3
# Description: The humanized Dll4 SCID mouse was made by replacing the entire extracellular domain of the mouse Dll4 gene with the corresponding extracellular region of the human Dll4 gene (7 kb) in embryonic stem (ES) cells. Homozygous hDll4 mice were generated and bred into SCID background.
# A total of 45 mice were divided into nine groups (n=5 per cohort). The first group was treated subcutaneously (sc) with hFc at 2 mg/kg; the second and third groups were treated sc with REGN421 at 0.5 and 2 mg/kg, respectively; the fourth and fifth groups were treated intraperitoneally (ip) with cisplatin at 0.5 and 2 mg/kg, respectively; the sixth group was treated sc with REGN421 at 0.5 mg/kg and ip with cisplatin at 0.5 mg/kg; the seventh group was treated sc with REGN421 at 0.5 mg/kg and ip with cisplatin at 2 mg/kg; the eighth group was treated sc with REGN421 at 2 mg/kg and ip with cisplatin at 0.5 mg/kg; and the ninth group was treated sc with REGN421 at 2 mg/kg and ip with cisplatin at 2 mg/kg. REGN421 was administered every 3-4 days starting on day 14 and mice received three doses total. Cisplatin was administered every 24 hours starting on day 14; mice received four doses total.
# To assess the effects of REGN421 and cisplatin as single agents or in combination treatments, the changes in tumor size were recorded. Tumor growth was measured three days before the initial REGN421 treatment, on the day of each REGN421 treatment (days 14, 17 and 21) and thereafter every 3-4 days until tumors reached ˜600 mm3 in size. In vivo tumor size was calculated using the formula (length×width2)/2 (FIG. 1 and Table 1).
# Tumor Growth Inhibition, TGI, was determined by calculating the difference in tumor size for treated (T) versus vehicle control (C) tumor at the day the control cohort was euthanized (i.e., at day 32); TGI=[1−(Tfinal−Tinitial)/(Cfinal−Cinitial)]×100.
# (§1) Tumor growth delay, TGD, was assessed as the difference in days between treated (T) versus control (C) tumors when each cohort reached a specified tumor size. The predetermined tumor size for this experiment was 600 mm^3.
# [3] = test system: human A549 tumor cells (non-small cell lung cancer); assay: Growth of human A549 tumors implanted in humanized Dll4 SCID mice; format: in vivo
# Description: as §1
# Each mouse was implanted subcutaneously (sc) with 5×10^6 human A549 tumor cells (non-small cell lung cancer or “NSCLC”). […] A total of 36 mice were divided into 6 groups (n=6 per cohort). The first group was treated sc with hFc at 2 mg/kg; the second group was treated sc with REGN421 at 2 mg/kg; the third and fourth groups were treated ip with cisplatin at 2.5 and 4.5 mg/kg, respectively; the fifth group was treated sc with REGN421 at 2 mg/kg and ip with cisplatin at 2.5 mg/kg; and the sixth group was treated sc with REGN421 at 2 mg/kg and ip with cisplatin at 4.5 mg/kg. REGN421 was administered every 3-4 days starting on day 29 and mice received three doses total. Cisplatin was administered every 24 hours starting on day 29 and mice received two doses total.
# To assess the effects of REGN421 and cisplatin as single agents or in combination we measured tumor size (volume), beginning three days before the initial REGN421 treatment, on the day of each agent treatment (days 29, 30, 33, 36) and thereafter every 3-4 days until tumors reached ˜600 mm^3 in size.
# [4] = test system: human HCT116 tumor cells (CRC); assay: Growth of human HCT116 tumors in humanized Dll4 SCID mice (5-FU study); format: in vivo
# Description: Each mouse was implanted subcutaneously (sc) with 5×10^6 human HCT116 tumor cells (CRC). […] The mice were then treated with hFc, REGN421, 5-FU or combination of REGN421 and 5-FU. A total of 30 mice were divided into 6 groups (n=5 per cohort). The first group was treated sc with hFc at 2 mg/kg; the second group was treated sc with REGN421 at 2 mg/kg; the third and fourth groups were treated ip with 5-FU at 15 and 25 mg/kg, respectively; the fifth group was treated sc with REGN421 at 2 mg/kg and ip with 5-FU at 15 mg/kg; and the sixth group was treated sc with REGN421 at 2 mg/kg and ip with 5-FU at 25 mg/kg. REGN421 was administered every 3-4 days starting on day 22 and mice received three doses total. 5-FU was administered every 3-4 days starting on day 22 and mice received three doses total.
# To assess the effects of REGN421 and 5-FU as single agents or in combination, the changes in tumor size (volume) were measured, beginning three days before the initial REGN421 treatment, and then on the day of each agent treatment (days 22, 26, 29) and thereafter every 3-4 days until tumors reach ˜600 mm^3 in size. In vivo tumor size is calculated using the formula (length×width^2)/2 (FIG. 3 and Table 5).
# [5] = test system: human HCT116 tumor cells; assay: Growth of human HCT116 tumors in humanized Dll4 SCID mice (irinotecan study); format: in vivo
# Description: Each mouse was implanted subcutaneously (sc) with 5×10^6 human HCT116 tumor cells. […] The mice were then treated with hFc, REGN421, irinotecan or combination of REGN421 and irinotecan. A total of 30 mice were divided into 6 groups (n=5 per cohort). The first group was treated sc with hFc at 2 mg/kg; the second group was treated sc with REGN421 at 2 mg/kg; the third and fourth groups were treated ip with irinotecan at 7.5 and 25 mg/kg, respectively; the fifth group was treated sc with REGN421 at 2 mg/kg and ip with irinotecan at 7.5 mg/kg; and the sixth group was treated sc with REGN421 at 2 mg/kg and ip with irinotecan at 25 mg/kg. REGN421 was administered every 3-4 days starting on day 15 and mice received three doses total. Irinotecan was administered every 3-4 days starting on day 15 and mice received three doses total.
# To assess the effects of REGN421 and irinotecan as single agents or in combination treatments, the changes in tumor size (volume) are measured, starting three days before the initial REGN421 treatment, and then on the day of each agent treatment (days 15, 19, 22) and thereafter every 3-4 days until tumors reach ˜600 mm^3 in size. In vivo tumor size is calculated using the formula (length×width^2)/2.
# [6] = test system: rat C6 tumor cells (glioblastoma cells); assay: Growth of rat C6 tumors implanted in SCID mice; format: in vivo
# Description: Each mouse was implanted subcutaneously (sc) with 1×10^6 rat C6 tumor cells (glioblastoma cells). […] Since these mice expressed mouse Dll4, the Dll4 Ab used in this experiment was prepared in-house, based on the published sequence (WO 2007/143689), and designated as REGN577. […] A total of 30 tumor-bearing male mice were randomized into six groups (N=5). […] Tumor size was calculated using the formula, (length×width2)/2.
# TGI and TGD were determined (Table 3).
# [7] = test system: human MDA-MB-231 breast tumor cells; assay: Growth of human MDA-MB-231 breast tumors implanted in SCID mice
# Description: The effect of anti-Dll4 antibody in combination with docetaxel (TAXOTERE®, sanofi-aventis) on tumor growth was evaluated on tumors implanted in Severe Combined Immunodeficiency (SCID) mice. […] After the tumors were established in the mice (tumor size of ˜150-200 mm^3, approximately 45 days after implantation), mice were treated with hFc, docetaxel, Dll4 antibody, or a combination of docetaxel plus Dll4 antibody. A total of 25 tumor-bearing male mice were randomized into five groups (N=5 mice per group). […] Docetaxel and/or Dll4 antibody were administered on the same day. Animals were treated 2 times per week and received a total of 3 doses. Starting from the day of initial treatment, body weight and tumors were measured twice a week until the mice are euthanized. Mice were euthanized when tumors reached ˜600 mm^3 in size. Tumor size was calculated using the formula (length×width^2)/2.
# The control tumors reached ˜600 mm^3 and were harvested on day 63.
# [8] = cisplatin 2.5 mg/kg ip (5 mg/kg total)
# [9] = cisplatin 4.5 mg/kg ip (9 mg/kg total)
# [10] = 5-FU 15 mg/kg ip (45 mg/kg total)
# [11] = 5-FU 25 mg/kg ip (75 mg/kg total)
# [12] = irinotecan 7.5 mg/kg ip (22.5 mg/kg total)
# [13] = irinotecan 25 mg/kg ip (75 mg/kg total)
# [14] = docetaxel 4.5 mg/kg iv (13.5 mg/kg total)
# [15] = docetaxel 6 mg/kg iv (18 mg/kg total)
compound,measurement,setting,value
"VEGF-Trap: VEGF receptor-based chimeric molecule, SEQ ID NO:121 [reference compound]",% TGI,[1],88%
"N.N.[Cl][Pt][Cl] [Cisplatin, cis-diamminedichloroplatinum]",Euthanized,[2]; cisplatin 0.5 mg/kg/dose ip x4,45 days
same,TGI(%),[2]; cisplatin 0.5 mg/kg/dose ip x4,60.7%
same,TGI(%),"[2]; cisplatin 0.5 mg/kg/dose ip x4, listed as cisplatin",61%
same,TGD,[2]; cisplatin 0.5 mg/kg/dose ip x4,13 days
same,Euthanized,[2]; cisplatin 2 mg/kg/dose ip x4,41 days
same,TGI(%),[2]; cisplatin 2 mg/kg/dose ip x4,53.8%
same,TGI(%),"[2]; cisplatin 2 mg/kg/dose ip x4, listed as cisplatin",54%
same,TGD,[2]; cisplatin 2 mg/kg/dose ip x4,9 days
same,TGD,[3]; [8],4 days
same,TGI (%) at Day 57,[3]; [8],35%
same,TGD,[3]; [9],11 days
same,TGI (%) at Day 57,[3]; [9],22%
"O=c1[nH]cc(F)c(=O)[nH]1 [5-FU, 5-fluorouracil]",TGD,[4]; [10],4 days
same,TGI(%) at Day 39,[4]; [10],5.6%
same,TGD,[4]; [11],2 days
same,TGI(%) at Day 39,[4]; [11],0%
"CCc1c2c(nc3ccc(OC(=O)N4CCC(N5CCCCC5)CC4)cc13)-c1cc3c(c(=O)n1C2)COC(=O)[C@]3(O)CC [Irinotecan, irinotecan]",TGD,[5]; [12],8 days
same,TGI(%) at Day 39,[5]; [12],71.2%
same,TGD,[5]; [13],16 days
same,TGI(%) at Day 39,[5]; [13],100.5%
"CC(=O)O[C@@]12CO[C@@H]1C[C@H](O)[C@@]1(C)C(=O)[C@H](O)C3=C(C)[C@@H](OC(=O)[C@H](O)[C@@H](NC(=O)OC(C)(C)C)c4ccccc4)C[C@@](O)([C@@H](OC(=O)c4ccccc4)[C@H]21)C3(C)C [Docetaxel, docetaxel]",TGD,[6]; [14],6 days
same,TGI(%) at Day 25,[6]; [14],62%
same,TGD,[6]; [15],7 days
same,TGI(%) at Day 25,[6]; [15],70%
same,TGD,[7]; [14],4 days
same,TGI(%) at Day 25,[7]; [14],37%
same,TGD,[7]; [15],4 days
same,TGI(%) at Day 25,[7]; [15],52%
